# Assay results from patent publication US20130122085A1, “PHARMACEUTICAL COMPOSITIONS OF SELECTIVE ANDROGEN RECEPTOR MODULATORS AND METHODS OF USE THEREOF” (priority 2011, published 2013).
# Experiments:
# patients with cancer = experiment: Phase II double-blind, placebo-controlled study in cancer patients with weight loss; assay type: in vivo, human; settings: 3 mg dose, 4 months
# Protocol: A Phase II double-blind, placebo-controlled study was performed with patients with cancer that had experienced at least a 2% total body weight loss in the 6 months prior to the study. The subjects received S-I or matching placebo for 4 months. In this study, no exercise program was mandated and no diet control or monitoring was conducted. The primary endpoint of this study was total lean body mass. The key secondary endpoint of this study was physical function (stair climb speed and power).
# [1] = tested on: ovariectomized female rats; experiment: Delivery system study: lean body mass and serum HDL in OVX rats; assay type: in vivo, rat; settings: 14 days, 0.13 mg/kg/day constant rate subcutaneous infusion (Alzet pump) vs daily subcutaneous injection
# Protocol: Female rats were ovariectomized and randomized by body weight into groups of 10. Treatment groups included: (1) 3 mg/kg/day DHT administered daily via subcutaneous injection, (2) 0.13 mg/kg/day S-I administered daily via subcutaneous injection, and (3) 0.13 mg/kg/day S-I administered at a constant rate via subcutaneous infusion by an Alzet pump. Baseline measurements of fasting serum HDL as determined by enzymatic assay were performed via retroorbital blood draw for all animals. Baseline lean body mass (LBM) as determined by magnetic resonance was determined for all animals. After 14 days of treatment, changes from baseline in lean body mass (Δ LBM) and fasting serum HDL (Δ HDL) were determined and represented as a percentage of DHT treated animals.
# [2] = Exposure of S-I in female rats; assay type: in vivo, rat
# Protocol: The exposure of S-I in female rats was AUCinf of 147,000 ng*hr/ml following a single 10 mg per kg IV dose. With the reasonable assumption that the SC Alzet pump dose was completely absorbed, a 0.13 mg per kg dose should result in an exposure of −1911 ng*hr/mL in rats. […] In other words, the 0.13 mg per kg per day Alzet dose in rats is equivalent to a 10 mg per day continuous release dose in humans, such as might be accomplished by a mechanical or osmotic pump, or transdermal patch, or the like.
# [3] = Steady-state exposure in healthy young men (G100402, MAD); settings: male, human, in vivo, 10 mg daily doses
smiles,measurement,setting,value
"C[C@](O)(COc1ccc(C#N)cc1)C(=O)Nc1ccc(C#N)c(C(F)(F)F)c1 [Compound S-I, (S)—N-(4-cyano-3-(trifluoromethyl)phenyl)-3-(4-cyanophenoxy)-2-hydroxy-2-methylpropanamide]",power subjects were able to exert climbing 12 steps,"patients with cancer; p=0.001 compared to baseline, p=0.058 compared to placebo",statistically significant increase
same,time it took the subjects to climb 12 steps,"patients with cancer; p=0.007 compared to baseline, p=0.028 compared to placebo",statistically significant decrease
same,total lean body mass,"patients with cancer; p=0.015 compared to placebo, p=0.020 compared to baseline",statistically significant increase
same,change from baseline in fasting serum HDL (Δ HDL),[1],smaller decrease in serum HDL
same,change from baseline in lean body mass (Δ LBM),[1],larger increase in LBM than daily subcutaneous injections
same,AUC(0-inf),"[2]; rat, in vivo, 10 mg/kg, female rats, single 10 mg per kg IV dose",147000 ng·h/mL
same,exposure expected at 0.13 mg per kg dose,"[2]; rats, SC Alzet pump dose assumed completely absorbed, extrapolated from 10 mg per kg IV",-1911 ng·h/mL
same,AUC(0-t),[3],1750 ng·h/mL
